For experiment [1], the target named is T1, human PSD95-PDZ2 (Homo sapiens, UniProt P78352).
T1 construct: PDZ2 (155-249, the Flag-His-Avitag-TEVsite tag is italicized); made in house; host or cells: E. coli BL21-DE3 (PET vector)
In words: competitive ELISA, affinity for human PSD95-PDZ2. Particulars: for IC50: competitive ELISA against 0.3 µM Biotin-NA-1, error of this test within three times, read-out: IC50; for rIC50: ratio of the affinity of the polypeptide compound to the affinity of NA-1. It counts as binding. The source says:
The objective of this test example was to determine the affinities of polypeptide compounds for human PSD95-PDZ2 using competitive ELISAs.
The amino acid sequence of PDZ2 protein was designed using human PSD95 (Uniprot Entry: P78352) as a template for PDZ: PDZ2 (155-249, the Flag-His-Avitag-TEVsite tag is italicized and was subsequently used for purification and biotinylation): […]
[…] (SEQ ID NO. 62). The PDZ2 gene was constructed onto a PET expression vector, and induced expression was performed using BL21-DE3 E. coli cells under conditions of 37 °C and 1 mM IPTG 4 h. Then centrifugation was performed at 10,000 g at 4 °C for 10 min, and the cell pellets were collected, resuspended in 1× PBS solution, and then lysed using a homogenizer. The lysate was centrifuged at high speed, and the supernatant was collected and filtered through a 0.45 µm membrane. A Ni-Sepharose affinity column was equilibrated with 5 column volumes of a 20 mM phosphate buffer (pH 8.0). The sample was centrifuged at high speed to remove impurities and loaded onto the column for binding. The column was rinsed with the 20 mM phosphate buffer until the A280 reading dropped to the baseline. Gradient elution was then performed with the 20 mM phosphate buffer and 0-500 mM imidazole. A protein was collected, and whether it was the target protein was determined. The purified sample described above was buffer-exchanged into 1× PBS solution, and the resulting solution was concentrated to a volume of 2 mL and further purified using a Superdex200 gel chromatography column (GE) equilibrated with 1× PBS. The target peak was collected and aliquoted for later use.
PSD95-PDZ2 (the tag was removed by TEV enzyme) was diluted with 1× PBS buffer to 1 µg/mL, added to a 96-well microplate (Corning, 9018, 25/box 96-well clear flat bottom plate) at 100 µL/well, and left to stand overnight at 4 °C for 16-20 h. After the liquid was discarded, the plate was washed three times with PBST (pH 7.4, 0.05% Tween-20) buffer, and a 4% BSA blocking solution diluted with PBST buffer was then added (300 µL/well). The plate was blocked by incubation in an incubator at 37 °C for 1 h. After the blocking was complete, the blocking solution was discarded, and the plate was washed three times with PBST buffer. Biotin-NA-1, at a constant concentration of 0.3 µM, and the test compounds, having a starting concentration of 100 µM and serially diluted ten-fold with PBS buffer to seven concentrations (100, 10, 1, 0.1, 0.01, 0.001, 0.0001, and 0 µM), were then added, and the plate was incubated in an incubator at 37 °C for 1 h. After the incubation was complete, the reaction solutions in the microplate were discarded, and the plate was washed three times with PBST. 100 µL of HRP-SA secondary antibody (diluted at 1:2000) was added to each well, and the plate was incubated at 37 °C for 1 h. After the plate was washed three times with PBST, 100 µL of TMB chromogenic substrate was added. The plate was incubated at room temperature for 1-3 min, and 100 µL of 1 M sulfuric acid was added to stop the reaction.
The absorbance at 450 nm was measured using a SpectraMax M5 microplate reader, and non-linear fitting was performed using GraphPad Prism 9 to calculate the binding IC50 values of the test compounds to PSD95-PDZ2 protein.
For orientation: An ELISA detects its analyte on a solid surface through an enzyme-linked reagent.

Experiment [2] addresses T1, human PSD95-PDZ2. Nature of the experiment: binding ELISA with Biotin-PDZ2. The note with it: for EC50: plate coated with 2 µM test compound, Biotin-PDZ2 titrated, read-out: EC50 (PDZ2); for Specificity for PDZ2 (PDZ3/PDZ2): ratio PDZ3/PDZ2. The source says:
(§1) The three PDZ domains in the PSD95 protein are structurally similar. Binding to the PDZ1 and PDZ2 domains can effectively block PSD95-mediated neuroexcitotoxicity. However, the biological function of binding to the PDZ3 domain is unclear. Therefore, to avoid potential safety concerns, this test example assessed the selectivity of polypeptide compounds for the PDZ2 and PDZ3 domains, aiming to identify polypeptide compounds that specifically bind to the PDZ2 domain. Site-specifically biotinylated Biotin-PDZ2 and Biotin-PDZ3 proteins were used for binding ELISA assays. […] After the blocking was complete, the blocking solution was discarded, and the plate was washed three times with PBST buffer. […] After the incubation was complete, the reaction solutions in the microplate were discarded, and the plate was washed three times with PBST. 100 µL of HRP-SA secondary antibody (diluted at 1:2000) was added to each well, and the plate was incubated at 37 °C for 1 h. After the plate was washed three times with PBST, 100 µL of TMB chromogenic substrate was added. […] The absorbance at 450 nm was measured using a SpectraMax M5 microplate reader, and the binding EC50 values of the test compounds to Biotin-PDZ2 or Biotin-PDZ3 were calculated using GraphPad Prism 9. […] The abilities of polypeptide compounds to bind to human PSD95-PDZ2 and human PSD95-PDZ3
Target sequence in this assay (P78352 155-249): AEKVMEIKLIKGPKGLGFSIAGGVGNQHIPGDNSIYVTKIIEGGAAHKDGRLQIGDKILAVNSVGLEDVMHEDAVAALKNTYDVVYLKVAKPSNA

Another experiment has as its target T2, human PSD95-PDZ3 (Homo sapiens, UniProt P78352).
T2 construct: PDZ3 (309-401, Flag-His-Avitag-TEVsite tag); made in house
Nature of the experiment: binding ELISA with Biotin-PDZ3. Particulars: plate coated with 2 µM test compound, Biotin-PDZ3 titrated; read-out: EC50 (PDZ3).
From the text: as §1, with “domain. The expression and purification of PSD95-PDZ3 protein were carried out with reference to the steps in 3.1.2. The amino acid sequence of PDZ3 protein: […]” for “domain.”, “μL” for “µL”

Non-standard residues stand in square brackets, D forms with d. Residues, ends and D or L forms follow the SMILES beside them. hArg = N=C(N)NCCCC[C@H](N)C(=O)O; Tle = CC(C)(C)[C@H](N)C(=O)O; Dab = NCC[C@H](N)C(=O)O; Aib = CC(C)(N)C(=O)O

T2 sequence (P78352 309-401): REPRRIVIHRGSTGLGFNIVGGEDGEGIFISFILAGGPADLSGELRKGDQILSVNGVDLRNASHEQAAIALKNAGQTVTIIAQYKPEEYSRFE

With `CC(C)[C@H](NC(=O)[C@H](CC(=O)O)NC(=O)[C@@H](NC(=O)[C@@H](NC(=O)[C@@H](NC(=O)COCCOCCNC(=O)[C@@H](CCCNC(=N)N)NC(=O)[C@@H](CCCNC(=N)N)NC(=O)[C@@H](CCCNC(=N)N)NC(=O)[C@@H](CCC(N)=O)NC(=O)[C@@H](CCCNC(=N)N)NC(=O)[C@@H](CCCNC(=N)N)NC(=O)[C@@H](CCCCN)NC(=O)[C@@H](CCCCN)NC(=O)[C@@H](CCCNC(=N)N)NC(=O)CNC(=O)[C@H](N)Cc1ccc(O)cc1)C(C)(C)C)C(C)(C)C)[C@@H](C)O)C(=O)O` [Polypeptide compound 15, y-G-r-k-k-r-r-q-r-r-r-AEEA-Tle-Tle-T-D-V], on human PSD95-PDZ2 [1], the IC50 was determined as 2.62 µM and the rIC50 is given as 3.00. In addition, the “selectivity for the PSD95-PDZ2 domain” value on human PSD95-PDZ2 [2] (PDZ2 versus PDZ3, conclusion in words) is “comparable to that of the positive drugs NA-1 and NoNO42”. At human PSD95-PDZ2 [2], the EC50 came to 0.088 µM and the “Specificity for PDZ2 (PDZ3/PDZ2)” value is on record as greater than 10000. The concentration for a half-maximal effect (EC50) at human PSD95-PDZ3 was greater than 1000 µM.
Take `CCCC[C@H](NC(=O)[C@@H](CCCNC(=N)N)NC(=O)[C@@H](CCCNC(=N)N)NC(=O)[C@@H](CCCNC(=N)N)NC(=O)[C@@H](CCC(N)=O)NC(=O)[C@@H](CCCNC(=N)N)NC(=O)[C@@H](CCCNC(=N)N)NC(=O)[C@@H](CCCCN)NC(=O)[C@@H](CCCCN)NC(=O)[C@@H](CCCNC(=N)N)NC(=O)CNC(=O)[C@H](N)Cc1ccc(O)cc1)C(=O)N[C@H](C(=O)N[C@H](C(=O)N[C@H](C(=O)N[C@H](C(=O)N[C@H](C(=O)N[C@@H](CC(=O)O)C(=O)N[C@H](C(=O)O)C(C)C)[C@@H](C)O)C(C)(C)C)C(C)(C)C)[C@@H](C)O)[C@@H](C)O` [Polypeptide compound 16, y-G-r-k-k-r-r-q-r-r-r-Nle-T-T-Tle-Tle-T-D-V]: the half-maximal inhibitory concentration (IC50) on human PSD95-PDZ2 [1] amounted to 1.52 µM. Moreover, the EC50 is 0.081 µM at human PSD95-PDZ2 [2] and greater than 1000 µM at human PSD95-PDZ3.
As for `CC[C@H](C)[C@H](NC(=O)[C@H](CCCCNC(=N)N)NC(=O)[C@H](CCCCNC(=N)N)NC(=O)[C@@H](NC(=O)[C@@H](CCCNC(=N)N)NC(=O)[C@@H](CCCNC(=N)N)NC(=O)[C@@H](CCCNC(=N)N)NC(=O)[C@@H](CCC(N)=O)NC(=O)[C@@H](CCCNC(=N)N)NC(=O)[C@@H](CCCNC(=N)N)NC(=O)[C@@H](CCCCN)NC(=O)[C@@H](CCCCN)NC(=O)[C@@H](CCCNC(=N)N)NC(=O)CNC(=O)[C@H](N)Cc1ccc(O)cc1)[C@@H](C)O)C(=O)N[C@H](C(=O)N[C@@H](CC(=O)O)C(=O)N[C@H](C(=O)O)C(C)C)[C@@H](C)O` [Polypeptide compound 17, y-G-r-k-k-r-r-q-r-r-r-T-homoArg-homoArg-I-T-D-V] (H-[dY]G[dR][dK][dK][dR][dR][dQ][dR][dR][dR]T[hArg][hArg]ITDV-OH), on human PSD95-PDZ2 [1], the concentration for half-maximal inhibition (IC50) turned out to be 0.605 µM. For the same molecule, the values for the concentration for a half-maximal effect (EC50) at human PSD95-PDZ2 [2] and on human PSD95-PDZ3 were 0.269 µM and 38.3 µM, respectively.
In the case of `CC(C)[C@H](NC(=O)[C@H](CC(=O)O)NC(=O)[C@@H](NC(=O)[C@@H](NC(=O)[C@@H](NC(=O)[C@H](CCCCNC(=N)N)NC(=O)[C@H](CCN)NC(=O)C(C)(C)NC(=O)CNC(=O)[C@@H](CCCNC(=N)N)NC(=O)[C@@H](CCCNC(=N)N)NC(=O)[C@@H](CCCNC(=N)N)NC(=O)[C@@H](CCC(N)=O)NC(=O)[C@@H](CCCNC(=N)N)NC(=O)[C@@H](CCCNC(=N)N)NC(=O)[C@@H](CCCCN)NC(=O)[C@@H](CCCCN)NC(=O)[C@@H](CCCNC(=N)N)NC(=O)CNC(=O)[C@H](N)Cc1ccc(O)cc1)C(C)(C)C)C(C)(C)C)[C@@H](C)O)C(=O)O` [Polypeptide compound 18, y-G-r-k-k-r-r-q-r-r-r-G-Aib-Dab-homoArg-Tle-Tle-T-D-V] (H-[dY]G[dR][dK][dK][dR][dR][dQ][dR][dR][dR]G[Aib][Dab][hArg][Tle][Tle]TDV-OH), on human PSD95-PDZ2 [1], the IC50 came out at 0.152 µM and the rIC50 is on record as 0.17. Also, at human PSD95-PDZ2 [2], the EC50 worked out at 0.015 µM and the “Specificity for PDZ2 (PDZ3/PDZ2)” value worked out at 79. For the same molecule, on human PSD95-PDZ3, the 50% effective concentration (EC50) is 1.19 µM.
Take `CC(C)[C@H](NC(=O)[C@H](CC(=O)O)NC(=O)[C@@H](NC(=O)[C@@H](NC(=O)[C@@H](NC(=O)[C@@H](NC(=O)CNC(=O)[C@@H](CCCNC(=N)N)NC(=O)[C@@H](CCCNC(=N)N)NC(=O)[C@@H](CCCNC(=N)N)NC(=O)[C@@H](CCC(N)=O)NC(=O)[C@@H](CCCNC(=N)N)NC(=O)[C@@H](CCCNC(=N)N)NC(=O)[C@@H](CCCCN)NC(=O)[C@@H](CCCCN)NC(=O)[C@@H](CCCNC(=N)N)NC(=O)CNC(=O)[C@H](N)Cc1ccc(O)cc1)[C@@H](C)O)C(C)(C)C)C(C)(C)C)[C@@H](C)O)C(=O)O` [Polypeptide compound 20, y-G-r-k-k-r-r-q-r-r-r-G-T-Tle-Tle-T-D-V] (H-[dY]G[dR][dK][dK][dR][dR][dQ][dR][dR][dR]GT[Tle][Tle]TDV-OH): on human PSD95-PDZ2 [1], the half-maximal inhibitory concentration (IC50) amounted to 0.763 µM and the rIC50 is 0.84. Besides, at human PSD95-PDZ2 [2], the EC50 stood at 0.015 µM and the “Specificity for PDZ2 (PDZ3/PDZ2)” value amounted to 215. Besides, the EC50 at human PSD95-PDZ3 was 3.23 µM.

In general, IC50 refers to the midpoint of a concentration-inhibition curve. As a reminder, the EC50 is the concentration at which the effect is half-maximal.

The values are drawn from EP4650362A1, “NEUROPROTECTIVE PSD-95 POLYPEPTIDE INHIBITOR AND USE THEREOF” (Beijing Tuo Jie Biopharmaceutical Co. Ltd., priority 2023, dated 2024).
